# Data from ChEMBL document CHEMBL1201862, “PubChem BioAssay data set” (2004).
#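 Cells were grown in 96-well plates and exposed to each compound for 48 hours at five concentrations; endpoints were interpolated linearly between bracketing concentrations, or set to the highest concentration if not reached. The concentration for 50% growth inhibition is given as GI50.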 Calls of active or inactive are those of the source. Cut-off read from the data, not from the text of the source: active = GI50 up to about 1.1 µM and inactive = higher.
# Experiments:
# Assay in all cases: inhibition of tumour cell growth, NCI panel, 48 h
# A498 = system: A498
# NCI/ADR-RES = system: NCI/ADR-RES
# SF-295 = system: SF-295
# BT-549 = system: BT-549
# T47D = system: T47D
# ACHN = system: ACHN
# MCF7 = system: MCF7
# SF-539 = system: SF-539
# UACC-62 = system: UACC-62
# HCT-116 = system: HCT-116
# RPMI-8226 = system: RPMI-8226
# MDA-MB-231 = system: MDA-MB-231
# HOP-62 = system: HOP-62
# NCI-H226 = system: NCI-H226
# 786-0 = system: 786-0
# UO-31 = system: UO-31
# NCI-H23 = system: NCI-H23
# K562 = system: K562
# SN12C = system: SN12C
# OVCAR-8 = system: OVCAR-8
# MDA-N = system: MDA-N
# COLO 205 = system: COLO 205
# DU-145 = system: DU-145
# SW-620 = system: SW-620
# U-251 = system: U-251
# Malme-3M = system: Malme-3M
# NCI-H460 = system: NCI-H460
# EKVX = system: EKVX
# SNB-19 = system: SNB-19
# RXF 393 = system: RXF 393
# HCT-15 = system: HCT-15
# MOLT-4 = system: MOLT-4
# A549 = system: A549
# OVCAR-3 = system: OVCAR-3
# PC-3 = system: PC-3
# SK-MEL-5 = system: SK-MEL-5
# HL-60 = system: HL-60
# OVCAR-5 = system: OVCAR-5
# SF-268 = system: SF-268
# LOX IMVI = system: LOX IMVI
# HCC 2998 = system: HCC 2998
# SK-OV-3 = system: SK-OV-3
# HT-29 = system: HT-29
# SK-MEL-2 = system: SK-MEL-2
# TK-10 = system: TK-10
# M14 = system: M14
# KM12 = system: KM12
# UACC-257 = system: UACC-257
# IGROV-1 = system: IGROV-1
# NCI-H522 = system: NCI-H522
# Hs-578T = system: Hs-578T
# CCRF-CEM = system: CCRF-CEM
# SR = system: SR
# SK-MEL-28 = system: SK-MEL-28
# SNB-75 = system: SNB-75
# CAKI-1 = system: CAKI-1
# MDA-MB-435 = system: MDA-MB-435
# HOP-92 = system: HOP-92
# OVCAR-4 = system: OVCAR-4
smiles,measurement,setting,value
CC(C)/C(Cl)=N\OC(=O)Nc1ccc(F)cc1,GI50,A498,14.2 µM (inactive)
same,GI50,NCI/ADR-RES,6.9 µM (inactive)
same,GI50,SF-295,14.4 µM (inactive)
same,GI50,BT-549,11.2 µM (inactive)
same,GI50,T47D,6.53 µM (inactive)
same,GI50,ACHN,3.55 µM (inactive)
same,GI50,MCF7,4.62 µM (inactive)
same,GI50,SF-539,16.9 µM (inactive)
same,GI50,UACC-62,16 µM (inactive)
same,GI50,HCT-116,6.61 µM (inactive)
same,GI50,RPMI-8226,1.94 µM (inactive)
same,GI50,MDA-MB-231,3.47 µM (inactive)
same,GI50,HOP-62,19.2 µM (inactive)
same,GI50,NCI-H226,18.2 µM (inactive)
same,GI50,786-0,5.18 µM (inactive)
same,GI50,UO-31,5.85 µM (inactive)
same,GI50,NCI-H23,18.2 µM (inactive)
same,GI50,K562,1.5 µM (inactive)
same,GI50,SN12C,5.87 µM (inactive)
same,GI50,OVCAR-8,12.8 µM (inactive)
same,GI50,MDA-N,8.26 µM (inactive)
same,GI50,COLO 205,2.63 µM (inactive)
same,GI50,DU-145,16.3 µM (inactive)
same,GI50,SW-620,1.69 µM (inactive)
same,GI50,U-251,15.6 µM (inactive)
same,GI50,Malme-3M,1.95 µM (inactive)
same,GI50,NCI-H460,18.1 µM (inactive)
same,GI50,EKVX,5.62 µM (inactive)
same,GI50,SNB-19,19.2 µM (inactive)
same,GI50,RXF 393,16.1 µM (inactive)
same,GI50,HCT-15,3.48 µM
same,GI50,MOLT-4,1.66 µM (inactive)
same,GI50,A549,17.4 µM (inactive)
same,GI50,OVCAR-3,8.22 µM (inactive)
same,GI50,PC-3,17.4 µM (inactive)
same,GI50,SK-MEL-5,13.6 µM (inactive)
same,GI50,HL-60,1.55 µM (inactive)
same,GI50,OVCAR-5,14.6 µM (inactive)
same,GI50,SF-268,24.6 µM (inactive)
same,GI50,LOX IMVI,2.05 µM (inactive)
same,GI50,HCC 2998,15.7 µM (inactive)
same,GI50,SK-OV-3,17.8 µM (inactive)
same,GI50,HT-29,2.04 µM (inactive)
same,GI50,SK-MEL-2,17.7 µM (inactive)
same,GI50,TK-10,4.8 µM (inactive)
same,GI50,M14,4.06 µM (inactive)
same,GI50,KM12,16.6 µM (inactive)
same,GI50,UACC-257,14.3 µM (inactive)
same,GI50,IGROV-1,14.8 µM (inactive)
same,GI50,NCI-H522,1.52 µM (inactive)
same,GI50,Hs-578T,24.7 µM (inactive)
same,GI50,CCRF-CEM,0.916 µM (active)
same,GI50,SR,1.68 µM (inactive)
same,GI50,SK-MEL-28,5.81 µM (inactive)
COc1ccc(-c2nc(N3CCCC3)no2)cc1,GI50,A498,31.6 µM (inactive)
same,GI50,NCI/ADR-RES,44.5 µM (inactive)
same,GI50,SNB-75,34.1 µM (inactive)
same,GI50,SF-295,21.2 µM (inactive)
same,GI50,BT-549,43.3 µM (inactive)
same,GI50,T47D,26.5 µM (inactive)
same,GI50,ACHN,35.8 µM (inactive)
same,GI50,MCF7,43.2 µM (inactive)
same,GI50,SF-539,24 µM (inactive)
same,GI50,UACC-62,31 µM (inactive)
same,GI50,CAKI-1,51.6 µM (inactive)
same,GI50,HCT-116,> 91.8 µM (inactive)
same,GI50,RPMI-8226,32.7 µM (inactive)
same,GI50,MDA-MB-231,50.1 µM (inactive)
same,GI50,HOP-62,27.9 µM (inactive)
same,GI50,NCI-H226,42.7 µM (inactive)
same,GI50,MDA-MB-435,> 100 µM (inactive)
same,GI50,786-0,36.3 µM (inactive)
same,GI50,UO-31,49.4 µM (inactive)
same,GI50,NCI-H23,54.6 µM (inactive)
same,GI50,K562,60.3 µM (inactive)
same,GI50,SN12C,74 µM (inactive)
same,GI50,HOP-92,48.4 µM (inactive)
same,GI50,OVCAR-8,34.5 µM (inactive)
same,GI50,MDA-N,67 µM (inactive)
same,GI50,COLO 205,> 100 µM (inactive)
same,GI50,DU-145,43.2 µM (inactive)
same,GI50,SW-620,> 100 µM (inactive)
same,GI50,U-251,86.3 µM (inactive)
same,GI50,Malme-3M,11.6 µM (inactive)
same,GI50,NCI-H460,33 µM (inactive)
same,GI50,EKVX,25.9 µM (inactive)
same,GI50,SNB-19,44.1 µM (inactive)
same,GI50,RXF 393,22 µM (inactive)
same,GI50,HCT-15,58.9 µM
same,GI50,MOLT-4,> 100 µM (inactive)
same,GI50,A549,38 µM (inactive)
same,GI50,OVCAR-3,72.8 µM (inactive)
same,GI50,PC-3,41.6 µM (inactive)
same,GI50,SK-MEL-5,53.6 µM (inactive)
same,GI50,HL-60,1.5 µM (inactive)
same,GI50,OVCAR-5,> 86.7 µM (inactive)
same,GI50,SF-268,53 µM (inactive)
same,GI50,LOX IMVI,33 µM (inactive)
same,GI50,HCC 2998,73.5 µM (inactive)
same,GI50,SK-OV-3,58.9 µM (inactive)
same,GI50,HT-29,54.7 µM (inactive)
same,GI50,SK-MEL-2,46.1 µM (inactive)
same,GI50,TK-10,> 100 µM (inactive)
same,GI50,M14,81.3 µM (inactive)
same,GI50,KM12,88.5 µM (inactive)
same,GI50,UACC-257,> 100 µM (inactive)
same,GI50,IGROV-1,18.9 µM (inactive)
same,GI50,NCI-H522,39.1 µM (inactive)
same,GI50,Hs-578T,24.9 µM (inactive)
same,GI50,CCRF-CEM,20.7 µM (inactive)
same,GI50,OVCAR-4,34 µM (inactive)
same,GI50,SK-MEL-28,> 100 µM (inactive)
